Where a name gives a salt, the structure may show the parent alone. Read-outs that look alike come from different tables or passages of the source.
Tests used:
ETA [1] = target: T1, ETA (Oryctolagus cuniculus, UniProt A5A8K3)
T1 sequence (A5A8K3 21-427): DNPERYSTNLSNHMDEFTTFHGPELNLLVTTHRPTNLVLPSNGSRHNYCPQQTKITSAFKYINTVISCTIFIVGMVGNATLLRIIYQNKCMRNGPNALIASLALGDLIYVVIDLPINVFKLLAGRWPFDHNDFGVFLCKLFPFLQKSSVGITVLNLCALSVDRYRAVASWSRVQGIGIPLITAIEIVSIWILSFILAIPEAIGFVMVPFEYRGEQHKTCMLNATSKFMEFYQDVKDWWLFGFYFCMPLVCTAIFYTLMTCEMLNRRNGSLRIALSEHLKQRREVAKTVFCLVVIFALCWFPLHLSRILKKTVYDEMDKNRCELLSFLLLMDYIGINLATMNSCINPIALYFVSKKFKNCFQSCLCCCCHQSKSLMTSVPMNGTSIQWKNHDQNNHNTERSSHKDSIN

ETA [2] = target: T1, ETA; remark: listed apart in the source
ETB = target: T2, ETB (Rattus norvegicus, UniProt P21451)
T2 sequence (P21451 27-442): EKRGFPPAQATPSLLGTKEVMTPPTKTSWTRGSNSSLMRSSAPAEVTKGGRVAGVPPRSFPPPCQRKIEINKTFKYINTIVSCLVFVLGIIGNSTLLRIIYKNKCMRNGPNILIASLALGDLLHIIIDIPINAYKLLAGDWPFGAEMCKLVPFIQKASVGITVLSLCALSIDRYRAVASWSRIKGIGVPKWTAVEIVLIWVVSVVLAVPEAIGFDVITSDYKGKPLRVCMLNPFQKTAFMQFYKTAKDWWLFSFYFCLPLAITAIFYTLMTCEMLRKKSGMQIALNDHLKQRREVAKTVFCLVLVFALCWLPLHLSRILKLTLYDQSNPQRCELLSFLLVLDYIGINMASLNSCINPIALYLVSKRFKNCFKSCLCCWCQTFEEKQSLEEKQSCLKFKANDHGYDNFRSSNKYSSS

human ETB receptor = target: T3, human ETB receptor (Homo sapiens, UniProt P24530); experiment: ERBA-B: [125I]-ET-1 binding, recombinant human ETB receptor expressed in CHO-K1 cells; settings: human cloned ETB receptor, read-out: ERBA-B IC50, human cloned receptor data
T3 construct: expressed in transfected cells; host or cells: CHO-K1 cells, pRc-CMW (so in the source) expression vector, electroporation; membranes used
T3 sequence (P24530 27-442): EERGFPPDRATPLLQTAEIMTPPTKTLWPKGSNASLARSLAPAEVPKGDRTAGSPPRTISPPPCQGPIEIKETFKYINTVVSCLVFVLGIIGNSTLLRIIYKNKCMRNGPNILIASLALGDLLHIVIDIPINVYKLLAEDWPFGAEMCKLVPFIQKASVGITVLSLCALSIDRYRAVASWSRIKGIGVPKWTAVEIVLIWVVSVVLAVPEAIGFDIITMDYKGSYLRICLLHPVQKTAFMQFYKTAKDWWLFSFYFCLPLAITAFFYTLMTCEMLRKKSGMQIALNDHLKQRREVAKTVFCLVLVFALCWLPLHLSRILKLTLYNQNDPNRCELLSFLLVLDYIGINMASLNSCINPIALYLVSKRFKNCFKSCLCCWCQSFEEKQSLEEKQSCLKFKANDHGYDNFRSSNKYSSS

ETA [3] = target: T1, ETA; experiment: VERA-A: antagonism of ET-1 stimulated vasoconstriction in the rabbit femoral artery (ETA); format: cell-based; settings: ET-1, rabbit femoral artery; for Kb: read-out: VERA-A pA2 (converted)
Experimental: Male New Zealand rabbits were killed by cervical dislocation and exsanguination. Femoral and pulmonary arteries were isolated, cleaned of connective tissue, and cut into 4-mm rings. The endothelium was denuded by placing the rings over hypodermic tubing (32 gauge for femoral rings and 28 gauge for pulmonary rings, Small Parts, Inc, Miami, Fla.) and gently rolling them. […] Resting tension was adjusted to 3.0 g for femoral and 4.0 g pulmonary arteries; the rings were left for 90 minutes to equilibrate.

[4] = ERBA-A IC50, [125I]-ET-1, rabbit renal artery vascular smooth muscle cells

Compound	IC50 (ETA [1]; [4])	IC50 (ETA [2])	IC50 (ETB)	IC50 (human ETB receptor)	Kb (ETA [3])	IC50 (ETA [1]; read-out: ERBA-A IC50, [125I]-ET-1, rabbit renal artery vascular smooth muscle cells)	VERA-A pA2 (ETA [3])	IC50 (ETA [2]; read-out: AAR-A, ET-1 (0.3 nM) stimulated arachidonic acid release)
COc1ccc(C2(O)OC(=O)C(c3ccc4c(c3)OCO4)=C2Cc2cccc(Cl)c2)cc1 (centres unmarked) [Example 75, 3-Benzo[1,3]dioxol-5-yl-4-(3-chlorobenzyl)-5-hydroxy-5-(4-methoxyphenyl)-5H -furan-2-one]	0.016 µM	0.071 µM	1.2 µM					
COc1ccc(C2(O)OC(=O)C(c3ccc4c(c3)OCO4)=C2Cc2ccc(C)cc2)cc1 (centres unmarked) [Example 76]	0.05 µM	0.52 µM	0.39 µM					
COc1ccc(C2(O)OC(=O)C(c3ccc4c(c3)OCO4)=C2Cc2ccc(N(C)C)cc2)cc1 (centres unmarked) [Example 85, 3-Benzo[1,3]dioxol-5-yl-4-(4-dimethylaminobenzyl)-5-hydroxy-5-(4-methoxyphenyl)-5H-furan-2-one]	0.023 µM	0.2 µM		1.6 µM	0.398 µM			
COc1ccc(C2(O)OC(=O)C(c3ccc4c(c3)OCO4)=C2Cc2ccc(OC)c(C)c2)cc1 (centres unmarked) [Example 89, 3-Benzo[1,3]dioxol-5-yl-5-hydroxy-4-(4-methoxy-3-methylbenzyl)-5-(4-methoxyphenyl)-5H-furan-2-one]						0.006 µM	6.3	0.039 µM
COc1ccc(C2(O)OC(=O)C(c3ccc4c(c3)OCO4)=C2Cc2cccc(C)c2)cc1 (centres unmarked) [Example 90, 3-Benzo[1,3]dioxol-5-yl-5-hydroxy-5-(4-methoxyphenyl)-4-(3-methylbenzyl)-5H -furan-2-one]	0.02 µM	0.088 µM		3.5 µM				
COc1ccc(C2(O)OC(=O)C(c3cc(OC)cc(OC)c3)=C2Cc2cccnc2)cc1 (centres unmarked) [Example 133, 3-(3,5-Dimethoxyphenyl)-5-hydroxy-5-(4-methoxyphenyl)-4-pyridin-3methyl-5H-furan-2-one]	0.03 µM	0.076 µM		6.8 µM				
C=CCOc1cc(CC2=C(c3cc(OC)cc(OC)c3)C(=O)OC2(O)c2ccc(OC)cc2)ccc1OC (centres unmarked) [Example 135, 4-(3-Allyloxy-4-methoxybenzyl)-3-(3,5-dimethoxyphenyl)-5-hydroxy-5-(4-methoxyphenyl)-5H-furan-2-one]	0.009 µM		0.33 µM		0.126 µM			
COc1ccc(C2(O)OC(=O)C(c3ccc4c(c3)OCO4)=C2Cc2cccnc2)cc1 (centres unmarked) [Example 160, 3-Benzo[1,3]dioxol-5-yl-5-hydroxy-5-(4-methoxyphenyl)-4-pyridin-3-ylmethyl-5H-furan-2-one]	0.35 µM	0.055 µM						
COC(=O)c1ccc(CC2=C(c3ccc4c(c3)OCO4)C(=O)OC2(O)c2ccc(OC)cc2)cc1 (centres unmarked) [Example 182, 4-[4-Benzo[1,3]dioxol-5-yl-2-hydroxy-2-(4-methoxyphenyl)-5-oxo-2,5-dihydrof uran-3-ylmethyl]benzoic acid methyl ester]	0.016 µM	0.05 µM		2 µM				
COc1ccc(C2(O)OC(=O)C(c3ccc4c(c3)OCO4)=C2Cc2ccccc2)cc1OC (centres unmarked) [Example 190, 3-Benzo[1,3]dioxol-5-yl-4-benzyl-5-(3,4-dimethoxyphenyl)-5-hydroxy-5H-furan-2-one]	0.065 µM	0.78 µM	0.75 µM					
COc1ccc(C2(O)OC(=O)C(c3ccc4c(c3)OCO4)=C2Cc2cc(OC)c(OC)c(OC)c2)cc1 (centres unmarked) [Example 281, 3-benzo[1,3]dioxol-5-yl-5-hydroxy-5-(4-methoxyphenyl)-4-(3,4,5-trimethoxybenzyl)-5H-furan-2-one]	0.0006 µM	7.7 µM						
COc1ccc(C(=O)/C(Cc2ccccc2)=C(\C(=O)O)c2ccc3c(c2)OCO3)cc1 [Example 351, Sodium 2-benzo[1,3]dioxol-5-yl-3-benzyl-4-(4-methoxyphenyl)-4-oxobut-2-enoate]	0.016 µM			> 0.25 µM	0.631 µM			
COc1ccc(C(=O)/C(Cc2ccc(OC(C)C)cc2)=C(\C(=O)O)c2ccc3c(c2)OCO3)cc1 [Example 352, 1,3-Benzodioxol-5-acetic acid, α-[2-(4-methoxyphenyl)-1-[[4-(1-methylethoxy)phenyl]methyl]-2-oxoethylene]-, (Z)-, choline salt]	0.005 µM			1.25 µM	0.0631 µM			
COc1ccc(C2(O)OC(=O)C(c3cc(OC)c4c(c3)OCO4)=C2Cc2cc(OC)c(OC)c(OC)c2)cc1 (centres unmarked) [Example 356, 5-Hydroxy-3-(7-methoxy-benzo[1,3]dioxol-5-yl)-5-(4-methoxy-phenyl)-4-(3,4,5-trimethoxy-benzyl)-5H-furan-2-one]	0.00025 µM			0.34 µM	0.02 µM			
COc1ccc(C2(O)OC(=O)C(c3cc(OC)c4c(c3)OCO4)=C2Cc2ccccc2)cc1C (centres unmarked) [Example 360, 4-Benzyl-5-hydroxy-3-(7-methoxy-benzo[1,3]dioxol-5-yl)-5-(4-methoxy-3-methyl-phenyl)-5H-furan-2-one]	0.0099 µM			1.35 µM	0.1 µM			
COc1ccc(C2(O)OC(=O)C(c3cc(OC)c4c(c3)OCO4)=C2Cc2cc(OC)c(OC)c(OC)c2)cc1C (centres unmarked) [Example 361, 5-Hydroxy-3-(7-methoxy-benzo[1,3]dioxol-5-yl)-5-(4-methoxy-3-methyl-phenyl) -4-(3,4,5-trimethoxy-benzyl)-5H-furan-2-one]	0.002 µM			0.22 µM	0.0398 µM			
COc1cc(OC)cc(C2=C(Cc3cc(OC)c(OC)c(OC)c3)C(O)(c3ccc(OC)c(C)c3)OC2=O)c1 (centres unmarked) [Example 382, 3-(3,5-Dimethoxy-phenyl)-5-hydroxy-5-(4-methoxy-3-methyl-phenyl)-4-(3,4,5-trimethoxy-benzyl)-5H-furan-2-one]	0.0009 µM			> 0.25 µM	0.158 µM			
COc1ccc(C2(O)OC(=O)C(c3ccc4c(c3)OCO4)=C2Cc2cc(OC)c(OC)c(OC)c2)cc1C (centres unmarked) [Example 383, 3-Benzo[1,3]dioxol-5-yl-5-hydroxy-5-(4-methoxy-3-methyl-phenyl)-4-(3,4,5-trimethoxy-benzyl)-5H-furan-2-one]	0.0005 µM	7.4 µM		0.29 µM				
COc1cc(OC)cc(/C(C(=O)O)=C(\Cc2ccc(NC(C)=O)cc2)C(=O)c2ccc(OC)c(C)c2)c1 [Example 386, Potassium 3-(4-Acetylamino-benzyl)-2-(3,5-dimethoxyphenyl)-4-(4-methoxy-3-methyl-phenyl)-4-oxo-but-2-enoate]	0.005 µM			2.1 µM	0.126 µM			
COc1ccc(C2(O)OC(=O)C(c3cc(OC)cc(OC)c3)=C2Cc2ccc(OC(C)C)c(OC)c2)cc1 (centres unmarked) [Example 389, 3-(3,5-Dimethoxy-phenyl)-5-hydroxy-4-(4-isopropoxy-3-methoxy-benzyl)-5-(4-methoxy-phenyl)-5H-furan-2-one]	0.0036 µM	0.0024 µM		1.1 µM				
COC(=O)c1cccc(C/C(C(=O)c2ccc(OC)cc2)=C(/C(=O)O)c2ccc3c(c2)OCO3)c1 [Example 405, 1,3-Benzodioxol-5-acetic acid, α-[1-[[3-(methoxycarbonyl)phenyl]methyl]-2-(4-methoxyphenyl)-2-oxoethylene]-, monopotassium salt]	0.0074 µM			2.7 µM	0.251 µM			

Reference: US5691373A, “Nonpeptide endothelin antagonists I” (Warner-Lambert Company, priority 1995, dated 1997)
